Here are results for 26 compounds from patent EP4029501A1, “COMBINATION OF POLYAROMATIC UREA DERIVATIVES AND GLUCOCORTICOID OR HDAC INHIBITOR FOR THE TREATMENT OF DISEASES OR CONDITIONS ASSOCIATED WITH MUSCLE CELLS AND/OR SATELLITE CELLS” (Anagenesis Biotechnologies, priority 2021, dated 2022).

Each structure is given as a SMILES string. Bounds are passed on as bounds.

The assay relates to muscle progenitors derived from DMD hiPSC. In words: Myotube assay: total myotube area per well (alpha-actinin staining). The class given is cell-based, human. As to conditions: Homo sapiens, Myotube, 72 h, DMD or WT cell source not given; for Emax: efficacy, MA = normalized Myotube Area, 3 days incubation; for EC50: myogenic activity, half-maximal generation of myotubes, 10 points dose-response 1.5 nM to 30 µM, 3 days. In a few lines:
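DMD hiPSC-derived muscle progenitors (NCRM-1 background) plated at 3500 cells/well in K5 medium with 5 µM Y-27632, then exposed to compound at 1.5 nM–30 µM for 3 days at 37°C. Cells fixed on day 7, alpha-actinin-immunostained and total myotube area per well quantified; duplicates averaged, EC50 and normalized myotube area derived.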

On to `CSc1cc(Oc2ccnc3c2CCC(=O)N3)ccc1NC(=O)Nc1cc(C(C)(C)C)nn1-c1cccc(Cl)c1` [(bz), 1-(3-(tert-butyl)-1-(3-chlorophenyl)-1H-pyrazol-5-yl)-3-(2-(methylthio)-4-((7-oxo-5,6,7,8-tetrahydro-1,8-naphthyridin-4-yl)oxy)phenyl)urea], for which the Emax – broadly, the size of the effect at its maximum, as opposed to the concentration needed – is no less than 75% and the concentration for a half-maximal effect (EC50) (usually the concentration giving half of the maximal effect) is less than 500 nM.

Consider `CSc1cc(Oc2cccc3[nH]ncc23)ccc1NC(=O)Nc1cc(C(C)(C)C)nn1-c1ccccc1` [(cn), 1-(4-((1H-indazol-4-yl)oxy)-2-(methylthio)phenyl)-3-(3-(tert-butyl)-1-phenyl-1H-pyrazol-5-yl)urea], for which the Emax lay in the range of 50 to 75% and the concentration for a half-maximal effect (EC50) was in the range of 1000 to 5000 nM.

Take `CSc1cc(Oc2ccnc3c2ncc(=O)n3C)ccc1NC(=O)Nc1cc(C(C)(C)C)nn1-c1ccccc1` [(au), 1-(3-(tert-butyl)-1-phenyl-1H-pyrazol-5-yl)-3-(4-((4-methyl-3-oxo-3,4-dihydropyrido[2,3-b]pyrazin-8-yl)oxy)-2-(methylthio)phenyl)urea]: the Emax is no less than 75% and the EC50 is no less than 5000 nM.

Turning to `CC(C)(C)c1cc(NC(=O)Nc2ccc(Oc3ccccc3)cc2F)n(-c2ccccc2)n1` [(ac), 1-(3-(tert-butyl)-1-phenyl-1H-pyrazol-5-yl)-3-(2-fluoro-4-phenoxyphenyl)urea], the maximum response (Emax) lay within 50 to 75% and the concentration giving a half-maximal response (EC50) fell in the range of 1000 to 5000 nM.

In turn, `CSc1cc(Oc2ccnc3c2CCCN3)ccc1NC(=O)Nc1cc(C(C)(C)C)nn1-c1ccccc1` [(be), 1-(3-(tert-butyl)-1-phenyl-1H-pyrazol-5-yl)-3-(2-(methylthio)-4-((5,6,7,8-tetrahydro-1,8-naphthyridin-4-yl)oxy)phenyl)urea] displayed a maximal effect (Emax) of no less than 75% and an EC50 of 1000 to 5000 nM.

Compound `CSc1cc(Oc2ccnc3[nH]c(=O)cnc23)ccc1NC(=O)Nc1cc(C(C)(C)C)nn1C1CCCCC1` [(bn), 1-(3-(tert-butyl)-1-cyclohexyl-1H-pyrazol-5-yl)-3-(2-(methylthio)-4-((3-oxo-3,4-dihydropyrido[2,3-b]pyrazin-8-yl)oxy)phenyl)urea] returned a maximum response (Emax) of 50 to 75% and an EC50 of no less than 5000 nM.

For the compound `CSc1cc(Oc2ccnc3[nH]c(=O)cnc23)ccc1NC(=O)Nc1cc(C(C)(C)C)nn1-c1ccc(OCCN2CCCCC2)cc1` [(ce), 1-(3-(tert-butyl)-1-(4-(2-(piperidin-1-yl)ethoxy)phenyl)-1H-pyrazol-5-yl)-3-(2-(methylthio)-4-((3-oxo-3,4-dihydropyrido[2,3-b]pyrazin-8-yl)oxy)phenyl)urea], the maximal response (Emax) was no less than 75% and the EC50 is less than 500 nM.

For the compound `CSc1cc(Oc2ccnc3c2CCC(=O)N3)ccc1NC(=O)Nc1cc(C(C)(C)C)nn1-c1ccccc1` [(an), 1-(3-(tert-butyl)-1-phenyl-1H-pyrazol-5-yl)-3-(2-(methylthio)-4-((7-oxo-5,6,7,8-tetrahydro-1,8-naphthyridin-4-yl)oxy)phenyl)urea], the Emax is no less than 75% and the EC50 was less than 500 nM.

The compound `CC(C)(C)c1cc(NC(=O)Nc2ccc(Oc3ccnc4[nH]c(=O)cnc34)cc2F)n(CCN2CCOCC2)n1` [(k), 1-(3-(tert-butyl)-1-(2-morpholinoethyl)-1 H-pyrazol-5-yl)-3-(2-fluoro-4-((3-oxo-3,4-dihydropyrido[2,3-b]pyrazin-8-yl)oxy)phenyl)urea] came in with an Emax of 50 to 75% and an EC50 of 1000 to 5000 nM.

`CSc1cc(Oc2ccnc3[nH]c(=O)cnc23)ccc1NC(=O)Nc1cc(C(C)(C)C)nn1-c1ccc(OCCCN(C)C)cc1` [(cr), 1-(3-(tert-butyl)-1-(4-(3-(dimethylamino)propoxy)phenyl)-1H-pyrazol-5-yl)-3-(2-(methylthio)-4-((3-oxo-3,4-dihydropyrido[2,3-b]pyrazin-8-yl)oxy)phenyl)urea] had an Emax of no less than 75% and a concentration giving a half-maximal response (EC50) of less than 500 nM.

Consider `Cc1cc(NC(=O)Nc2ccc(Oc3ccnc4[nH]c(=O)cnc34)cc2F)n(-c2ccccc2)n1` [(a), 1-(2-fluoro-4-((3-oxo-3,4-dihydropyrido[2,3-b]pyrazin-8-yl)oxy)phenyl)-3-(3-methyl-1-phenyl-1 H-pyrazol-5-yl)urea], for which the Emax was in the range of 25 to 50% and the EC50 lay within 500 to 1000 nM.

`CC(C)(C)c1cc(NC(=O)Nc2ccc(Oc3ccnc4[nH]c(=O)cnc34)cn2)n(-c2ccccc2)n1` [(u), 1-(3-(tert-butyl)-1-phenyl-1 H-pyrazol-5-yl)-3-(5-((3-oxo-3,4-dihydropyrido[2,3-b]pyrazin-8-yl)oxy)pyridin-2-yl)urea] showed an Emax of 25 to 50% and an EC50 of 1000 to 5000 nM.

Compound `CC(C)(C)c1cc(NC(=O)Nc2ccc(Oc3ccncc3)cc2F)n(-c2ccccc2)n1` [(ad), 1-(3-(tert-butyl)-1-phenyl-1H-pyrazol-5-yl)-3-(2-fluoro-4-(pyridin-4-yloxy)phenyl)urea] came in with a maximal effect (Emax) of 25 to 50% and a 50% effective concentration (EC50) of 500 to 1000 nM.

Compound `CC(C)(C)c1cc(NC(=O)Nc2ccc(Oc3ccnc4[nH]c(=O)cnc34)cc2F)n(Cc2ccccc2)n1` [(j), 1-(1-benzyl-3-(tert-butyl)-1 H-pyrazol-5-yl)-3-(2-fluoro-4-((3-oxo-3,4-dihydropyrido[2,3-b]pyrazin-8-yl)oxy)phenyl)urea] yielded an Emax of 50 to 75% and an EC50 of 1000 to 5000 nM.

As to `CCOC(=O)Nc1cc(Oc2ccc(NC(=O)Nc3cc(C(C)(C)C)nn3-c3ccccc3)c3ccccc23)ccn1` [(da), ethyl (4-((4-(3-(3-(tert-butyl)-1-phenyl-1 H-pyrazol-5-yl)ureido)naphthalen-1-yl)oxy)pyridin-2-yl)carbamate], the maximum response (Emax) is no less than 75% and the 50% effective concentration (EC50) was less than 500 nM.

For the compound `CSc1cc(Oc2ccnc3[nH]c(=O)cnc23)ccc1NC(=O)Nc1cc(C(C)(C)C)nn1-c1ccc(C)c(C)c1` [(cd), 1-(3-(tert-butyl)-1-(3,4-dimethylphenyl)-1H-pyrazol-5-yl)-3-(2-(methylthio)-4-((3-oxo-3,4-dihydropyrido[2,3-b]pyrazin-8-yl)oxy)phenyl)urea], the maximal response (Emax) was no less than 75% and the half-maximal effective concentration (EC50) was less than 500 nM.

For `CSc1cc(Oc2ccnc3[nH]c(=O)cnc23)ccc1NC(=O)Nc1nnc(C(C)(C)C)o1` [(cj), 1-(5-(tert-butyl)-1,3,4-oxadiazol-2-yl)-3-(2-(methylthio)-4-((3-oxo-3,4-dihydropyrido[2,3-b]pyrazin-8-yl)oxy)phenyl)urea], the maximal effect (Emax) is no less than 75% and the concentration giving a half-maximal response (EC50) is no less than 5000 nM.

Compound `O=C(Nc1ccc(Oc2ccnc3[nH]c(=O)cnc23)cc1F)Nc1cc(C2CC2)nn1-c1ccccc1` [(e), 1-(3-cyclopropyl-1-phenyl-1 H-pyrazol-5-yl)-3-(2-fluoro-4-((3-oxo-3,4-dihydropyrido[2,3-b]pyrazin-8-yl)oxy)phenyl)urea] displayed a maximal response (Emax) of 25 to 50% and an EC50 of no less than 5000 nM.

As to `CC(C)(C)c1cc(NC(=O)Nc2ccc(Oc3ccnc4[nH]c(=O)cnc34)cc2F)n(-c2cccnc2)n1` [(l), 1-(3-(tert-butyl)-1-(pyridin-3-yl)-1 H-pyrazol-5-yl)-3-(2-fluoro-4-((3-oxo-3,4-dihydropyrido[2,3-b]pyrazin-8-yl)oxy)phenyl)urea], the maximal response (Emax) lay within 50 to 75% and the concentration for a half-maximal effect (EC50) lay in the range of 500 to 1000 nM.

In turn, `CSc1cc(Oc2ccnc(NC(=O)OCc3ccccc3)c2)ccc1NC(=O)Nc1cc(C(C)(C)C)nn1-c1ccccc1` [(cx), benzyl (4-(4-(3-(3-(tert-butyl)-1-phenyl-1H-pyrazol-5-yl)ureido)-3-(methylthio)phenoxy)pyridin-2-yl)carbamate] displayed a maximum response (Emax) of no less than 75% and an EC50 of 500 to 1000 nM.

With `CC(C)(C)c1cc(NC(=O)Nc2ccc(Oc3ccnc4[nH]c(=O)cnc34)c(F)c2F)n(-c2ccccc2)n1` [(bo), 1-(3-(tert-butyl)-1-phenyl-1 H-pyrazol-5-yl)-3-(2,3-difluoro-4-((3-oxo-3,4-dihydropyrido[2,3-b]pyrazin-8-yl)oxy)phenyl)urea], the maximal response (Emax) is no less than 75% and the half-maximal effective concentration (EC50) was less than 500 nM.

In the case of `CC(C)(C)c1cc(NC(=O)Nc2ccc(Oc3ccnc4[nH]c(=O)cnc34)cc2C(F)(F)F)n(-c2ccccc2)n1` [(v), 1-(3-(tert-butyl)-1-phenyl-1H-pyrazol-5-yl)-3-(4-((3-oxo-3,4-dihydropyrido[2,3-b]pyrazin-8-yl)oxy)-2-(trifluoromethyl)phenyl)urea], the Emax is no less than 75% and the EC50 was less than 500 nM.

Consider `CSc1cc(Oc2ccnc3[nH]c(=O)cnc23)ccc1NC(=O)Nc1cc(C(C)(C)C)nn1-c1ccc(Cl)cc1` [(ao), 1-(3-(tert-butyl)-1-(4-chlorophenyl)-1H-pyrazol-5-yl)-3-(2-(methylthio)-4-((3-oxo-3,4-dihydropyrido[2,3-b]pyrazin-8-yl)oxy)phenyl)urea], for which the Emax was no less than 75% and the EC50 was no less than 5000 nM.

As to `CSc1cc(Oc2ccnc3[nH]c(=O)cnc23)ccc1NC(=O)Nc1cc(C(C)(C)C)nn1-c1ccccc1Cl` [(at), 1-(3-(tert-butyl)-1-(2-chlorophenyl)-1H-pyrazol-5-yl)-3-(2-(methylthio)-4-((3-oxo-3,4-dihydropyrido[2,3-b]pyrazin-8-yl)oxy)phenyl)urea], the maximum response (Emax) was no less than 75% and the EC50 was no less than 5000 nM.

Take `CSc1cc(Oc2ccnc3[nH]c(=O)cnc23)ccc1NC(=O)Nc1ncc(C(C)(C)C)s1` [(ah), 1-(5-(tert-butyl)thiazol-2-yl)-3-(2-(methylthio)-4-((3-oxo-3,4-dihydropyrido[2,3-b]pyrazin-8-yl)oxy)phenyl)urea]: the maximum response (Emax) was no less than 75% and the half-maximal effective concentration (EC50) is no less than 5000 nM.

In turn, `O=C(Nc1ccc(Oc2ccnc3[nH]c(=O)cnc23)cc1F)Nc1cc(C2(C(F)(F)F)CC2)nn1-c1ccccc1` [(d), 1-(2-fluoro-4-((3-oxo-3,4-dihydropyrido[2,3-b]pyrazin-8-yl)oxy)phenyl)-3-(1-phenyl-3-(1-(trifluoromethyl)cyclopropyl)-1 H-pyrazol-5-yl)urea] had an Emax of 50 to 75% and a 50% effective concentration (EC50) of 1000 to 5000 nM.
